Data from publication PMC11589570, “Critical assessment of LC3/GABARAP ligands used for degrader development and ligandability of LC3/GABARAP binding pockets” (Nature Communications, 2024).
Read-outs that look alike come from different tables or passages of the source.

Target: LC3B (Homo sapiens, UniProt Q9GZQ8)
Settings: for CSP: LC3B:TH152 1:2

CCCCCCC(Sc1nc(Cl)cc(Nc2nc(-c3ccc(C(=O)O)cc3)cs2)n1)C(=O)O (stereo not shown) [compound 21]
CSP induced (G85 HN resonance, molar ratio TH152:LC3B 0.125): 0.02291
CSP induced (G85 HN resonance, molar ratio TH152:LC3B 0.25): 0.03839
CSP induced (G85 HN resonance, molar ratio TH152:LC3B 0.5): 0.1193
CSP induced (G85 HN resonance, molar ratio TH152:LC3B 1): 0.155
CSP induced (G85 HN resonance, molar ratio TH152:LC3B 2): 0.2522
CSP induced (G85 HN resonance, molar ratio TH152:LC3B 4): 0.2665
CSP induced (K51 HN resonance, molar ratio TH152:LC3B 0.125): 0.02268
CSP induced (K51 HN resonance, molar ratio TH152:LC3B 0.25): 0.07734
CSP induced (K51 HN resonance, molar ratio TH152:LC3B 0.5): 0.1341
CSP induced (K51 HN resonance, molar ratio TH152:LC3B 1): 0.2088
CSP induced (K51 HN resonance, molar ratio TH152:LC3B 2): 0.2565
CSP induced (K51 HN resonance, molar ratio TH152:LC3B 4): 0.2885
CSP (LC3B residue A75): 0.013 ppm
CSP (LC3B residue A78): 0.040 ppm
CSP (LC3B residue A114): 0.035 ppm
CSP (LC3B residue D19): 0.028 ppm
CSP (LC3B residue D48): 0.348 ppm
CSP (LC3B residue D56): 0.088 ppm
CSP (LC3B residue D104): 0.039 ppm
CSP (LC3B residue D106): 0.043 ppm
CSP (LC3B residue E14): 0.013 ppm
CSP (LC3B residue E18): 0.013 ppm
CSP (LC3B residue E25): 0.075 ppm
CSP (LC3B residue E36): 0.143 ppm
CSP (LC3B residue E41): 0.015 ppm
CSP (LC3B residue E62): 0.105 ppm
CSP (LC3B residue E97): 0.079 ppm
CSP (LC3B residue E100): 0.117 ppm
CSP (LC3B residue E102): 0.024 ppm
CSP (LC3B residue E105): 0.037 ppm
CSP (LC3B residue E117): 0.088 ppm
CSP (LC3B residue F07): 0.134 ppm
CSP (LC3B residue F13): 0.017 ppm
CSP (LC3B residue F52): 0.303 ppm
CSP (LC3B residue F108): 0.042 ppm
CSP (LC3B residue F119): 0.051 ppm
CSP (LC3B residue G40, estimated): 0.060 ppm
CSP (LC3B residue G107): 0.021 ppm
CSP (LC3B residue H27): 0.041 ppm
CSP (LC3B residue H57): 0.104 ppm
CSP (LC3B residue I23): 0.063 ppm
CSP (LC3B residue I31): 0.112 ppm
CSP (LC3B residue I34): 0.268 ppm
CSP (LC3B residue I35): 0.113 ppm
CSP (LC3B residue I64): 0.179 ppm
CSP (LC3B residue I66): 0.103 ppm
CSP (LC3B residue I67): 0.053 ppm
CSP (LC3B residue K08): 0.049 ppm
CSP (LC3B residue K30): 0.042 ppm
CSP (LC3B residue K39): 0.108 ppm
CSP (LC3B residue K42): 0.061 ppm
CSP (LC3B residue K49): 0.162 ppm
CSP (LC3B residue K51): 0.313 ppm
CSP (LC3B residue K65): 0.162 ppm
CSP (LC3B residue K103): 0.084 ppm
CSP (LC3B residue L22): 0.077 ppm
CSP (LC3B residue L44): 0.080 ppm
CSP (LC3B residue L47): 0.391 ppm
CSP (LC3B residue L53): 0.260 ppm
CSP (LC3B residue L63): 0.163 ppm
CSP (LC3B residue L71): 0.095 ppm
CSP (LC3B residue L73): 0.103 ppm
CSP (LC3B residue L109): 0.035 ppm
CSP (LC3B residue M01, estimated): 0.020 ppm
CSP (LC3B residue M60): 0.042 ppm
CSP (LC3B residue M111): 0.134 ppm
CSP (LC3B residue N59): 0.559 ppm
CSP (LC3B residue N74): 0.039 ppm
CSP (LC3B residue N76): 0.012 ppm
CSP (LC3B residue P02, estimated): 0.020 ppm
CSP (LC3B residue P28, estimated): 0.020 ppm
CSP (LC3B residue P32, estimated): 0.150 ppm
CSP (LC3B residue P45, estimated): 0.170 ppm
CSP (LC3B residue P55, estimated): 0.150 ppm
CSP (LC3B residue Q09): 0.00263 ppm
CSP (LC3B residue Q15): 0.016 ppm
CSP (LC3B residue Q26): 0.095 ppm
CSP (LC3B residue Q43): 0.037 ppm
CSP (LC3B residue Q72): 0.019 ppm
CSP (LC3B residue Q77): 0.045 ppm
CSP (LC3B residue Q116): 0.027 ppm
CSP (LC3B residue R10): 0.025 ppm
CSP (LC3B residue R11): 0.027 ppm
CSP (LC3B residue R16): 0.021 ppm
CSP (LC3B residue R21): 0.028 ppm
CSP (LC3B residue R24): 0.060 ppm
CSP (LC3B residue R37): 0.107 ppm
CSP (LC3B residue R68): 0.281 ppm
CSP (LC3B residue R69): 0.147 ppm
CSP (LC3B residue R70): 0.122 ppm
CSP (LC3B residue S03, estimated): 0.020 ppm
CSP (LC3B residue S61): 0.163 ppm
CSP (LC3B residue S96): 0.238 ppm
CSP (LC3B residue S101): 0.072 ppm
CSP (LC3B residue S115): 0.019 ppm
CSP (LC3B residue T06): 0.020 ppm
CSP (LC3B residue T12): 0.021 ppm
CSP (LC3B residue T29): 0.015 ppm
CSP (LC3B residue T50): 0.299 ppm
CSP (LC3B residue T118): 0.045 ppm
CSP (LC3B residue V17): 0.022 ppm
CSP (LC3B residue V20): 0.018 ppm
CSP (LC3B residue V33): 0.194 ppm
CSP (LC3B residue V46): 0.270 ppm
CSP (LC3B residue V54): 0.190 ppm
CSP (LC3B residue V58): 0.313 ppm
CSP (LC3B residue V98): 0.081 ppm
CSP (LC3B residue V112): 0.337 ppm
CSP (LC3B residue Y38): 0.061 ppm
CSP (LC3B residue Y99): 0.068 ppm
CSP (LC3B residue Y110): 0.103 ppm
CSP (LC3B residue Y113): 0.148 ppm
CSP induced (M111 HN resonance, molar ratio TH152:LC3B 0.125): 0.01154
CSP induced (M111 HN resonance, molar ratio TH152:LC3B 0.25): 0.02288
CSP induced (M111 HN resonance, molar ratio TH152:LC3B 0.5): 0.0422
CSP induced (M111 HN resonance, molar ratio TH152:LC3B 1): 0.08206
CSP induced (M111 HN resonance, molar ratio TH152:LC3B 2): 0.1192
CSP induced (M111 HN resonance, molar ratio TH152:LC3B 4): 0.1287
CSP induced (S90 HN resonance, molar ratio TH152:LC3B 0.125): 0.02291
CSP induced (S90 HN resonance, molar ratio TH152:LC3B 0.25): 0.03839
CSP induced (S90 HN resonance, molar ratio TH152:LC3B 0.5): 0.1193
CSP induced (S90 HN resonance, molar ratio TH152:LC3B 1): 0.155
CSP induced (S90 HN resonance, molar ratio TH152:LC3B 2): 0.2522
CSP induced (S90 HN resonance, molar ratio TH152:LC3B 4): 0.2665
CSP induced (V33 HN resonance, molar ratio TH152:LC3B 0.125): 0.02123
CSP induced (V33 HN resonance, molar ratio TH152:LC3B 0.25): 0.03832
CSP induced (V33 HN resonance, molar ratio TH152:LC3B 0.5): 0.08102
CSP induced (V33 HN resonance, molar ratio TH152:LC3B 1): 0.1239
CSP induced (V33 HN resonance, molar ratio TH152:LC3B 2): 0.1753
CSP induced (V33 HN resonance, molar ratio TH152:LC3B 4): 0.2006
